For data set [1], the system named is H5N1 avian influenza viruses CV strain. Description: animal or person. The following applies: for IC50: Influenza A virus. The format is in vivo, H5N1 avian influenza virus.
Data set [2] has as its system H5N1 avian influenza virus, WV strain. The note with it: in vivo, po.
The test system of the next data set is influenza virus. The note with it: in vivo, po.
A further data set has as its system embryonated hen eggs. The note with it: in vivo.
The mark [3] stands for this setting: H5N1, read-out: IC50 against H5N1 avian influenza virus.

Molecules are shown by their SMILES. ≈ marks a conversion by molar mass, not a printed value. Structures can show the parent of a compound that is named as a salt. Where two headings read alike, the source gives them in different places.

For the molecule `CCOC(=O)C1=C[C@@H](OC(CC)CC)[C@H](NC(C)=O)[C@@H](N)C1` [TAMIFLU®, oseltamivir phosphate, reference compound], the IC50 in data set [1] (H5N1, read-out: IC50 (drug concentration required to survive 50% embryo)) was 25.1 mg/mL; in data set [1] (setting [3]), 19.4 mg/mL. In addition, the “protection rate in mice” value in data set [2] amounted to 60%.
Take `NCCS` [cysteamine hydrochloride]: the “time until symptoms associated with the influenza infection had disappeared” value in the data set with influenza virus is not above 24 h.
In the case of `NCCS` [TG21, Cysteamine], the IC50 in data set [1] (setting [3]) was 17.5 mg/mL (≈ 227 mM). Moreover, the “IC50 against H5N1 avian influenza virus” value in data set [1] (in vivo) was 16.1 mg/mL (≈ 209 mM). Besides, in the data set with embryonated hen eggs (chicken (hen) embryo), the “LD50 of TG21 to embryonated hen eggs” value is 32.1 mg/mL and the “dose below which no side-effect was found” value was “below 12.5 mg/mL”. Besides, the “toxicity at high doses” value in the data set with embryonated hen eggs was “some toxicity was detected”.

Values taken from patent publication US9283198B2, “Materials and methods for treating viral infections” (priority 2005, dated 2016).
